Tests used:
[1] = test system: human iPS cell-derived neurospheres; assay: Neurite length after differentiation of neurospheres into neurons; format: cell-based; conditions: neurospheres cultured one day with inhibitor, then differentiated; 7th and 14th day; 201B7 and 414C2; compared to the untreated group
Protocol: Specifically, in an in vitro experimental system, human iPS cell-derived neurospheres were treated with a γ-secretase inhibitor and a p38 MAPK inhibitor to induce differentiation into neurons. Subsequently, the length of the neurite was measured and evaluated.
DAPT was used as the γ-secretase inhibitor. In addition, SB203580 (CAS Number: 152121-47-6) was used as the p38 MAPK inhibitor. First, human iPS cell-derived neurospheres were cultured for one day in the presence of the γ-secretase inhibitor alone, in the presence of the p38 MAPK inhibitor alone, or in the presence of the γ-secretase inhibitor and the p38 MAPK inhibitor.
Subsequently, various cells were seeded on a poly-L-ornithine/fibronectin-coated 48-well chamber slide (manufactured by Costar Corporation) at a cell density of 1×10^5 cells/mL, and the cells were cultured in a growth factor-free medium at in a 95% air environment at 37° C. and 5% CO2 for 14 days and were differentiated into neurons. Subsequently, on the 7th day and the 14th day after the initiation of differentiation induction, the cells were fixed with 4% paraformaldehyde in 0.1 M PBS, and the length of the neurite was measured.
FIG. 13A is a graph showing the results for neurons derived from 201B7 cells (n=5). In addition, FIG. 13B is a graph showing the results for neurons derived from 414C2 cells (n=5).

p38 MAPK [2] = assay: Immunostaining of p38 MAPK, phosphorylated p38 MAPK and βIII-tubulin in differentiated cells; format: cell-based, human; conditions: 14 days after initiation of differentiation induction
Protocol: Immunostaining of p38 MAPK, phosphorylated p38 MAPK, and βIII-tubulin was performed using cells obtained 14 days after the initiation of differentiation induction. In addition, Hoechst 33342 (CAS Number: 23491-52-3) was used to stain the cell nuclei.
FIG. 14A and FIG. 14B are representative microscopic images showing the results of immunostaining of the cells in the GSI (+) group. In FIG. 14A and FIG. 14B, “Pp38” indicates phosphorylated p38 MAPK, and “Merge” indicates the results of superimposing microscopic images. The scale bar is 20μm.

p38 MAPK [3] = assay: Immunostaining of phosphorylated p38 MAPK in neurons derived from 201B7 neurospheres; format: cell-based, human; conditions: 201B7 neurospheres cultured one day at final concentration of 10 μM, differentiated 14 days
Protocol: Phosphorylation of p38 MAPK in human iPS cell-derived neurospheres treated with a γ-secretase inhibitor was examined.
Specifically, neurospheres derived from 201B7 cells, which are cells of a human iPS cell strain, were cultured for one day in the presence of a secretase inhibitor at a final concentration of 10 μM. Subsequently, the neurospheres were cultured in a growth factor-free medium in a 95% air environment at 37° C. and 5% CO2 for 14 days and were differentiated into nerurons. Subsequently, on the 14th day after the initiation of differentiation induction, the cells were fixed with 4% paraformaldehyde in 0.1 M PBS and observed. DAPT was used as the γ-secretase inhibitor. Immunostaining of phosphorylated p38 MAPK and βIII-tubulin was performed. In addition, Hoechst 33342 (CAS Number: 23491-52-3) was used to stain the cell nuclei.
FIG. 26 is representative microscopic images showing the results of immunostaining. In FIG. 26, “Pp38” represents phosphorylated p38 MAPK, and “Merge” indicates the results of superimposing microscopic images. The scale bar is 20 μm.

| Compound | neurite outgrowth (length of the neurite) [1] | localization of p38-positive region relative to βIII-tubulin-positive neurons (p38 MAPK [2]) | localization of phosphorylated p38-positive region (p38 MAPK [2]) | phosphorylation of p38 MAPK in neurons derived from the neurospheres (p38 MAPK [3]) |
| --- | --- | --- | --- | --- |
| C[S+]([O-])c1ccc(-c2nc(-c3ccncc3)c(-c3ccc(F)cc3)[nH]2)cc1 (centres unmarked) [p38 MAPK inhibitor, SB203580] | significantly decreased |  |  |  |
| C[C@H](NC(=O)Cc1cc(F)cc(F)c1)C(=O)N[C@H](C(=O)OC(C)(C)C)c1ccccc1 [γ-secretase inhibitor, DAPT] | significantly large | co-localized | in the nucleus | enhanced |

Source: patent US20260167926A1, “SPINAL CORD INJURY TREATMENT NEUROSPHERE” (KEIO UNIVERSITY, priority 2019, published 2026)
